In US12358932B2, “Chemical compounds” (BORAH, INC., priority 2019, dated 2025):

biological target: T1, Recombinant human PDE4B (Homo sapiens, UniProt Q07343); experiment: PDE4B Phosphodiesterase Assay; format: biochemical; design: key to Activity Note: PDE4: The (+) symbols identify a compound of the present disclosure with the noted target activity; +*: The (*) symbols indicate preferential activity, where the greater number identifies the most preferred compounds; +**: The (*) symbols indicate preferential activity, where the greater number identifies the most preferred compounds; +***: The (*) symbols indicate preferential activity, where the greater number identifies the most preferred compounds; settings: compound list; + = noted target activity
T1 construct: aa 305-end; GST (N); made in house; host or cells: Sf9 insect cells (baculovirus)
Procedure: The assay is based on the fluorescence polarization measuring AMP/GMP production as a result of the enzyme activity by displacement of Tracer binding to the AMP/GMP antibody. • Reaction Buffer: 10 mM Tris-HCl, pH 7.5, 5 mM MgCl2, 0.01% Brij 35, 1 mM DTT and 1% DMSO. • Enzyme: Recombinant human PDE4B (Gene Accession #NM_002600; aa 305-end) was expressed by baculovirus in Sf9 insect cells using an N-terminal GST tag. Mw=78 kDa. • Substrate: 1 μM cAMP • Detection: Transcreener® AMP2/GMP2 Antibody AMP2/GMP2 AlexaFluor 633 Tracer Reaction Procedure: • 1. Prepared indicated enzyme and substrate in freshly prepared Reaction Buffer • 2. Delivered enzyme solution into the reaction well • 3. Delivered compounds in 100% DMSO into the enzyme solution by Acoustic technology (Echo550; nanoliter range), incubated for 10 min at room temperature • 4. Delivered substrate solution into the reaction well to initiate the reaction • 5. Incubated for 1 h at room temperature • 6. Added detection mixture (Tracer and antibody in the stop buffer) to stop the reaction and incubated for 90 min with gentle mixing. The fluorescence polarization was measured at Ex/Em 620/688.
Data Analysis: The FP signals were converted into nM product based on an AMP/GMP standard curve and calculated % Enzyme activity relative to DMSO control by Excel. The curve fit was performed using GraphPad prism.

T1 sequence (Q07343 305-736 limits assumed): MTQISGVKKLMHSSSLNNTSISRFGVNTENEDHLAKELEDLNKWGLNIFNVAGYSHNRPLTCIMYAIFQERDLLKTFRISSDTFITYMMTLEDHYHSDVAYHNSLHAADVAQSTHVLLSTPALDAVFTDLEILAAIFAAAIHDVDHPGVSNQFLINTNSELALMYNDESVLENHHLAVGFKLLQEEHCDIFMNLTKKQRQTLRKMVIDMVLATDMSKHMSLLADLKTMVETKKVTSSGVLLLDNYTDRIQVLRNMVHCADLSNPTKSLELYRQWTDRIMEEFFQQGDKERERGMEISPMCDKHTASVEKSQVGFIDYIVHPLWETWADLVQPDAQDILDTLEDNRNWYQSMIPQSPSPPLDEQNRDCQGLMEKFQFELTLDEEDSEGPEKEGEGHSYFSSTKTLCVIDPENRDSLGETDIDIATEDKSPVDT

Row | SMILES | Activity Note: PDE4
1 | Cc1cnc(Nc2cc(F)c3c(c2)COB3O)nc1Nc1ccccc1 [7-fluoro-5-((5-methyl-4-(phenylamino)pyrimidin-2-yl)amino)benzo[c][1,2]oxaborol-1(3H)-ol] | +
2 | CCC(CO)Nc1nc(Nc2ccc3c(c2)COB3O)ncc1Cl (centres unmarked) [5-((5-chloro-4-((1-hydroxybutan-2-yl)amino)pyrimidin-2-yl)amino)benzo[c][1,2]oxaborol-1(3H)-ol] | +
3 | OB1OCc2cc(Nc3ncc(Cl)c(NC4CCCC4)n3)ccc21 [5-((5-chloro-4-(cyclopentylamino)pyrimidin-2-yl)amino)benzo[c][1,2]oxaborol-1(3H)-ol] | +
4 | Cc1cnc(Nc2ccc3c(c2)COB3O)nc1NC1CCCCC1 [5-((4-(cyclohexylamino)-5-methylpyrimidin-2-yl)amino)benzo[c][1,2]oxaborol-1(3H)-ol] | +
5 | Cc1cnc(Nc2ccc3c(c2)COB3O)nc1Nc1ccccc1C(F)(F)F [5-((5-methyl-4-((2-(trifluoromethyl)phenyl)amino)pyrimidin-2-yl)amino)benzo[c][1,2]oxaborol-1(3H)-ol] | +

test system: JAK; experiment: Biochemical Kinase Assay Protocol (JAK); settings: compound list; + = noted target activity, number of * = preference
Procedure: Biochemical Kinase Assay Protocol (JAK, TrkA, Syk, Tyk2)
Reagent: Base Reaction buffer; 20 mM Hepes (pH 7.5), 10 mM MgCl2, 1 mM EGTA, 0.02% Brij™ 35, 0.02 mg/ml BSA, 0.1 mM Na3VO4, 2 mM DTT, 1% DMSO, where required cofactors are added individually to each kinase reaction.
• 1. Prepare indicated substrate in freshly prepared Base Reaction Buffer • 2. Deliver any required cofactors to the substrate solution above • 3. Deliver indicated kinase (JAK or TrkA) into the substrate solution and gently mix • 4. Deliver compounds in DMSO into the kinase reaction mixture by Acoustic technology (Echo550; nanoliter range), incubate for 20 minutes at room temperature • 5. Deliver 33P-ATP into the reaction mixture to initiate the reaction. • 6. Incubate kinase reaction for 2 hours at room temperature • 7. Reactions are spotted onto P81 ion exchange paper • 8. Detect kinase activity by filter-binding method. PDE4B Phosphodiesterase Assay

Row | SMILES | Activity Note: JAK
6 | Cc1cnc(Nc2ccc3c(c2)B(O)OC3)nc1NC1CCN(C)CC1 [6-((5-methyl-4-((1-methylpiperidin-4-yl)amino)pyrimidin-2-yl)amino)benzo[c][1,2]oxaborol-1(3H)-ol] | JAK+*
7 | Cc1cnc(Nc2ccc3c(c2)B(O)OC3)nc1Nc1cccc(S(C)(=O)=O)c1 [6-((5-methyl-4-((3-(methylsulfonyl)phenyl)amino)pyrimidin-2-yl)amino)benzo[c][1,2]oxaborol-1(3H)-ol] | JAK+*
8 | CC1OB(O)c2ccc(Nc3ncc(Cl)c(NC4CCCC4)n3)cc21 (centres unmarked) [5-((5-chloro-4-(cyclopentylamino)pyrimidin-2-yl)amino)-3-methylbenzo[c][1,2]oxaborol-1(3H)-ol] | JAK+***
9 | Cc1cnc(Nc2cc(Cl)c3c(c2)C(C)(C)OB3O)nc1Nc1ccccc1 [7-chloro-3,3-dimethyl-5-((5-methyl-4-(phenylamino)pyrimidin-2-yl)amino)benzo[c][1,2]oxaborol-1(3H)-ol] | JAK+***
10 | CCC(CC)Nc1nc(Nc2ccc3c(c2)B(O)OC3)ncc1C [6-((5-methyl-4-(pentan-3-ylamino)pyrimidin-2-yl)amino)benzo[c][1,2]oxaborol-1(3H)-ol] | JAK+*
11 | Cc1cnc(Nc2cc(C)c3c(c2)CCOB3O)nc1NC1CCCC1 [6-((4-(cyclopentylamino)-5-methylpyrimidin-2-yl)amino)-8-methyl-3,4-dihydro-1H-benzo[c][1,2]oxaborinin-1-ol] | JAK+*
12 | CCC(CC)Nc1nc(Nc2ccc3c(c2)C(C)OB3O)ncc1C (centres unmarked) [3-methyl-5-((5-methyl-4-(pentan-3-ylamino)pyrimidin-2-yl)amino)benzo[c][1,2]oxaborol-1(3H)-ol] | JAK+***
13 | Cc1cnc(Nc2cc3c(c(C(F)(F)F)c2)B(O)OC3)nc1Nc1ccccc1 [5-((5-methyl-4-(phenylamino)pyrimidin-2-yl)amino)-7-(trifluoromethyl)benzo[c][1,2]oxaborol-1(3H)-ol] | JAK+***
14 | CCC(CC)Nc1nc(Nc2ccc3c(c2)C(C)(C)OB3O)ncc1C [3,3-dimethyl-5-((5-methyl-4-(pentan-3-ylamino)pyrimidin-2-yl)amino)benzo[c][1,2]oxaborol-1(3H)-ol] | JAK+***
15 | Cc1cnc(Nc2cc(C)c3c(c2)COB3O)nc1NC1CCCC1 [5-((4-(cyclopentylamino)-5-methylpyrimidin-2-yl)amino)-7-methylbenzo[c][1,2]oxaborol-1(3H)-ol] | JAK+***
16 | CCc1cc(Nc2ncc(C)c(Nc3ccccc3)n2)cc2c1B(O)OC2 [7-ethyl-5-((5-methyl-4-(phenylamino)pyrimidin-2-yl)amino)benzo[c][1,2]oxaborol-1(3H)-ol] | JAK+***
17 | CCc1cc(N(c2ncc(C)c(NC(CC)CC)n2)S(=O)(=O)C(F)(F)F)cc2c1B(O)OC2 [N-(7-ethyl-1-hydroxy-1,3-dihydrobenzo[c][1,2]oxaborol-5-yl)-1,1,1-trifluoro-N-(5-methyl-4-(pentan-3-ylamino)pyrimidin-2-yl)methanesulfonamide] | JAK+*
18 | CCC(CC)Nc1nc(Nc2cc(Cl)c3c(c2)COB3O)ncc1C [7-chloro-5-((5-methyl-4-(pentan-3-ylamino)pyrimidin-2-yl)amino)benzo[c][1,2]oxaborol-1(3H)-ol] | JAK+***
19 | CCc1cc(Nc2ncc(C)c(NC(CC)CC)n2)cc2c1B(O)OC2 [7-ethyl-5-((5-methyl-4-(pentan-3-ylamino)pyrimidin-2-yl)amino)benzo[c][1,2]oxaborol-1(3H)-ol] | JAK+***
20 | Cc1cnc(Nc2cc(C)c3c(c2)C(C)(C)OB3O)nc1Nc1ccccc1 [3,3,7-trimethyl-5-((5-methyl-4-(phenylamino)pyrimidin-2-yl)amino)benzo[c][1,2]oxaborol-1(3H)-ol] | JAK+***
21 | CCC(CC)Nc1nc(Nc2cc(Cl)c3c(c2)C(C)(C)OB3O)ncc1C [7-chloro-3,3-dimethyl-5-((5-methyl-4-(pentan-3-ylamino)pyrimidin-2-yl)amino)benzo[c][1,2]oxaborol-1(3H)-ol] | JAK+***
22 | Cc1cnc(Nc2cc(C)c3c(c2)COB3O)nc1Nc1ccccc1 [7-methyl-5-((5-methyl-4-(phenylamino)pyrimidin-2-yl)amino)benzo[c][1,2]oxaborol-1(3H)-ol] | JAK+***
23 | Cc1cnc(Nc2ccc3c(c2)B(O)OC3)nc1NC1CCC(C)CC1 (centres unmarked) [6-((5-methyl-4-((4-methylcyclohexyl)amino)pyrimidin-2-yl)amino)benzo[c][1,2]oxaborol-1(3H)-ol] | JAK+**
24 | Cc1cc(Nc2ncc(Cl)c(NC3CCCC3)n2)cc2c1B(O)OC2 [5-((5-chloro-4-(cyclopentylamino)pyrimidin-2-yl)amino)-7-methylbenzo[c][1,2]oxaborol-1(3H)-ol] | JAK+***
25 | Cc1cnc(Nc2ccc3c(c2F)B(O)OC3)nc1Nc1cccc(S(C)(=O)=O)c1 [7-fluoro-6-((5-methyl-4-((3-(methylsulfonyl)phenyl)amino)pyrimidin-2-yl)amino)benzo[c][1,2]oxaborol-1(3H)-ol] | JAK+*
26 | CCc1cc(Nc2ncc(Cl)c(NC3CCCC3)n2)cc2c1B(O)OC2 [5-((5-chloro-4-(cyclopentylamino)pyrimidin-2-yl)amino)-7-ethylbenzo[c][1,2]oxaborol-1(3H)-ol] | JAK+***
27 | CCC(CC)Nc1nc(Nc2cc(C)c3c(c2)C(C)(C)OB3O)ncc1C [3,3,7-trimethyl-5-((5-methyl-4-(pentan-3-ylamino)pyrimidin-2-yl)amino)benzo[c][1,2]oxaborol-1(3H)-ol] | JAK+***
28 | Cc1cnc(Nc2ccc3c(c2)CCOB3O)nc1NC1CCCC1 [6-((4-(cyclopentylamino)-5-methylpyrimidin-2-yl)amino)-3,4-dihydro-1H-benzo[c][1,2]oxaborinin-1-ol] | JAK+***
29 | Cc1cc(Nc2ncc(Cl)c(NC3CCCC3)n2)cc2c1B(O)OC2(C)C [5-((5-chloro-4-(cyclopentylamino)pyrimidin-2-yl)amino)-3,3,7-trimethylbenzo[c][1,2]oxaborol-1(3H)-ol] | JAK+***
30 | CC1(C)OB(O)c2c(Cl)cc(Nc3ncc(Cl)c(NC4CCCC4)n3)cc21 [7-chloro-5-((5-chloro-4-(cyclopentylamino)pyrimidin-2-yl)amino)-3,3-dimethylbenzo[c][1,2]oxaborol-1(3H)-ol] | JAK+***
31 | CCC(CC)Nc1nc(Nc2cc(C)c3c(c2)COB3O)ncc1C [7-methyl-5-((5-methyl-4-(pentan-3-ylamino)pyrimidin-2-yl)amino)benzo[c][1,2]oxaborol-1(3H)-ol] | JAK+***
32 | Cc1cnc(Nc2ccc3c(c2)C(C)(C)OB3O)nc1Nc1ccccc1 [3,3-dimethyl-5-((5-methyl-4-(phenylamino)pyrimidin-2-yl)amino)benzo[c][1,2]oxaborol-1(3H)-ol] | JAK+***
